Assay results published in patent US5409933A, “Quinoline derivatives and processes for preparing the same” (priority 1993, dated 1995).
Counter-ions that a name gives are not always drawn. Like-named read-outs stand apart in the source and are kept apart here.

Key:
Assay in all cases: In Vitro Anti-Bacterial Activity Test (MIC, agar dilution)
Type in all cases: cell-based
[1] = test system: Enterobacter cloacae 1321E; settings: Enterobacter cloacae 1321E; Muller-Hinton agar, 37° C., 18 hours; read-out: MIC
Summary of the method: (§1)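 Agar dilution on Muller-Hinton agar; strains inoculated at 10^7 C.F.U./ml, incubated at 37° C. for 18 hours, then scored for visible growth. MIC taken as the lowest concentration preventing growth; ciprofloxacin served as control agent.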

Enterobacter cloacae P99 = settings: Enterobacter cloacae, P99, 18 h
Summary of the method: (§2)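 Muller-Hinton agar dilution method. Inoculum 10^7 C.F.U./ml; 37° C., 18 h. Endpoint: minimum inhibitory concentration by growth inspection. Ciprofloxacin control.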

Escherichia coli 078 = settings: Escherichia coli, 078, 18 h
Summary of the method: as §1

Escherichia coli 1507E = settings: Muller-Hinton agar, 37° C.
Summary of the method: as §1

Escherichia coli DC0 = settings: Muller-Hinton agar, 37° C., 18 hours, read-out: MIC
Summary of the method: as §1

Escherichia coli DC2 = settings: Escherichia coli, DC2, 18 h
Summary of the method: as §1

Escherichia coli TEM = settings: Escherichia coli, 18 h, Muller-Hinton agar, 37° C.
Summary of the method: as §2

[2] = test system: Klebsiella aerogenes 1522E; settings: Klebsiella aerogenes, 1522E, 18 h
Summary of the method: as §1

Klebsiella oxytoca 1082E = settings: Klebsiella oxytoca 1082E; Muller-Hinton agar, 37° C., 18 hours; read-out: MIC
Summary of the method: as §1

[3] = test system: Pseudomonas aeruginosa 1592E; settings: Muller-Hinton agar, 37° C., 18 hours, read-out: MIC
Summary of the method: as §1

[4] = test system: Pseudomonas aeruginosa 1771M; settings: Pseudomonas aeruginosa, 1771M, 18 h, Muller-Hinton agar, 37° C.
Summary of the method: as §1

[5] = test system: Pseudomonas aeruginosa 1771; settings: Pseudomonas aeruginosa 1771; Muller-Hinton agar, 37° C., 18 hours; read-out: MIC
Summary of the method: as §1

[6] = test system: Pseudomonas aeruginosa 9027; settings: Muller-Hinton agar, 37° C., 18 hours, read-out: MIC
Summary of the method: as §1

Salmonella typhimurium = settings: Salmonella enterica; Salmonella typhimurium; Muller-Hinton agar, 37° C., 18 hours; read-out: MIC
Summary of the method: as §1

[7] = test system: Staphylococcus aureus 285; settings: Staphylococcus aureus, 285, 18 h
Summary of the method: as §1

[8] = test system: Staphylococcus aureus 503; settings: Staphylococcus aureus 503; Muller-Hinton agar, 37° C., 18 hours; read-out: MIC
Summary of the method: as §1

[9] = test system: Staphylococcus aureus SG511; settings: Staphylococcus aureus SG511; Muller-Hinton agar, 37° C., 18 hours; read-out: MIC
Summary of the method: as §1

[10] = test system: Streptococcus faecium MD8b; settings: Enterococcus faecium, Muller-Hinton agar, 37° C., 18 hours, read-out: MIC
Summary of the method: as §1

[11] = test system: Streptococcus pyogenes 308A; settings: Muller-Hinton agar, 37° C., 18 hours, read-out: MIC
Summary of the method: as §1

[12] = test system: Streptococcus pyogenes 77A
Summary of the method: as §1

[13] = Staphylococcus aureus 285, Muller-Hinton agar, 37° C., 18 hours, read-out: MIC
[14] = Streptococcus pyogenes 77A, Muller-Hinton agar, 37° C., 18 hours, read-out: MIC
[15] = Klebsiella aerogenes 1522E, Muller-Hinton agar, 37° C., 18 hours, read-out: MIC

Row | SMILES | MIC [1] | MIC (Enterobacter cloacae P99) | MIC (Escherichia coli 078) | MIC (Escherichia coli 1507E; Escherichia coli, 1507E, 18 h) | MIC (Escherichia coli DC0) | MIC (Escherichia coli DC2) | MIC (Escherichia coli TEM) | MIC (Klebsiella oxytoca 1082E) | MIC [3] | MIC [4] | MIC [5] | MIC [6] | MIC (Salmonella typhimurium) | MIC [7, 13] | MIC [8] | MIC [9] | MIC [10] | MIC [11] | MIC [12, 14] | MIC [2, 15] | also measured
1 | N#CCC(=O)c1cn(C2CC2)c2c(Cl)c(N3CC4=C(CNC4)C3)c(F)cc2c1=O [Example 44, 1-cyclopropyl-6-fluoro-8-chloro-7-(3,7-diazabicyclo[3.3.0]oct-1,5-en-3-yl)-3-(2-cyanoacetyl)-1,4-dihydro-4-oxoquinoline hydrochloride] | 0.098 µg/mL | 0.195 µg/mL | 0.195 µg/mL | 0.781 µg/mL | 3.12 µg/mL | 1.56 µg/mL | 0.391 µg/mL | 0.195 µg/mL | 6.25 µg/mL | 3.12 µg/mL | 12.5 µg/mL | 12.5 µg/mL | 0.195 µg/mL | 6.25 µg/mL | 6.25 µg/mL | 6.25 µg/mL | 25 µg/mL | 25 µg/mL | 25 µg/mL |  | MIC [2]: 0.391 µg/mL
2 | N#CC(C#N)C(=O)c1cn(C2CC2)c2c(Cl)c(N3CCC(N)C3)c(F)cc2c1=O (stereo not drawn) [Example 45, 1-cyclopropyl-6-fluoro-8-chloro-7-(3-aminopyrrolidin-1-yl)-3-(2,2-dicyanoacetyl)-1,4-dihydro-4-oxoquinoline hydrochloride] | 0.098 µg/mL | 0.195 µg/mL | 0.049 µg/mL | 0.195 µg/mL | 1.56 µg/mL | 0.781 µg/mL | 0.195 µg/mL | 0.049 µg/mL | 3.12 µg/mL | 0.781 µg/mL | 3.12 µg/mL | 6.25 µg/mL | 0.098 µg/mL | 1.56 µg/mL | 1.56 µg/mL | 0.781 µg/mL | 6.25 µg/mL | 25 µg/mL | 25 µg/mL | 0.391 µg/mL | 
3 | CNCC1=CCN(c2c(F)cc3c(=O)c(C(=O)CS(C)(=O)=O)cn(C4CC4)c3c2Cl)C1 [Example 46, 1-cyclopropyl-6-fluoro-8-chloro-7-(3-methylaminomethyl-2,5-dihydropyrrol-1-yl)-3-(2-methanesulfonylacetyl)-1,4-dihydro-4-oxoquinoline hydrochloride] | 0.049 µg/mL | 0.098 µg/mL | 0.025 µg/mL | 0.098 µg/mL | 0.391 µg/mL | 0.098 µg/mL | 0.049 µg/mL | 0.013 µg/mL | 0.781 µg/mL | 0.195 µg/mL | 1.56 µg/mL | 1.56 µg/mL | 0.195 µg/mL | 0.049 µg/mL | 0.049 µg/mL | 0.098 µg/mL | 0.195 µg/mL | 1.56 µg/mL | 0.391 µg/mL | 0.013 µg/mL | 
4 | CS(=O)(=O)CC(=O)c1cn(C2CC2)c2c(Cl)c(N3CC4=C(CNC4)C3)c(F)cc2c1=O [Example 47, 1-cyclopropyl-6-fluoro-8-chloro-7-(3,7-diazabicyclo[3.3.0]oct-1,5-en-3-yl)-3-(2-methanesulfonylacetyl)-1,4-dihydro-4-oxoquinoline hydrochloride] | 0.049 µg/mL | 0.049 µg/mL | 0.195 µg/mL | 0.391 µg/mL | 0.781 µg/mL | 0.391 µg/mL | 0.195 µg/mL | 0.098 µg/mL | 0.781 µg/mL | 0.195 µg/mL | 0.781 µg/mL | 1.56 µg/mL | 0.098 µg/mL |  | 0.391 µg/mL | 0.391 µg/mL | 0.781 µg/mL | 1.56 µg/mL |  | 0.049 µg/mL | MIC [7]: 0.195 µg/mL; MIC ([12]; Streptococcus pyogenes, 77A, 18 h): 0.781 µg/mL
5 | CC(=O)C(C(C)=O)C(=O)c1cn(C2CC2)c2c(Cl)c(N3CCC(N)C3)c(F)cc2c1=O (stereo not drawn) [Example 48, 1-cyclopropyl-6-fluoro-8-chloro-7-(3-aminopyrrolidin-1-yl)-3-(2,2-diacetoacetyl)-1,4-dihydro-4-oxoquinoline hydrochloride] | 0.098 µg/mL | 0.098 µg/mL | 0.049 µg/mL | 0.195 µg/mL | 0.391 µg/mL | 0.098 µg/mL | 0.049 µg/mL | 0.195 µg/mL | 1.56 µg/mL | 0.781 µg/mL | 3.12 µg/mL | 3.12 µg/mL | 0.391 µg/mL | 0.195 µg/mL | 0.195 µg/mL | 0.195 µg/mL | 0.195 µg/mL | 0.781 µg/mL | 0.391 µg/mL | 0.195 µg/mL | 
6 | COc1c(N2CCC(N)C2)c(F)cc2c(=O)c(C(=O)C[N+](=O)[O-])cn(C3CC3)c12 (stereo not drawn) [Example 49, 1-cyclopropyl-6-fluoro-8-methoxy-7-(3-aminopyrrolidin-1-yl)-3-(2-nitroacetyl)-1,4-dihydro-4-oxoquinoline hydrochloride] | 0.025 µg/mL | 0.049 µg/mL | 0.049 µg/mL | 0.098 µg/mL | 0.391 µg/mL | 0.098 µg/mL | 0.049 µg/mL | 0.013 µg/mL | 1.56 µg/mL | 0.781 µg/mL | 3.12 µg/mL | 3.12 µg/mL | 0.049 µg/mL | 0.098 µg/mL | 0.098 µg/mL | 0.098 µg/mL | 0.195 µg/mL | 0.391 µg/mL | 0.098 µg/mL | 0.098 µg/mL | 
7 | Cc1c(N2CCC(N)C2)c(F)cc2c(=O)c(C(=O)C[N+](=O)[O-])cn(C3CC3)c12 (stereo not drawn) [Example 50, 1-cyclopropyl-6-fluoro-8-methyl-7-(3-aminopyrrolidin-1-yl)-3-(2-nitroacetyl)-1,4-dihydro-4-oxoquinoline hydrochloride] | 0.013 µg/mL | 0.013 µg/mL | 0.025 µg/mL | 0.098 µg/mL | 0.195 µg/mL | 0.049 µg/mL | 0.049 µg/mL | 0.013 µg/mL | 0.781 µg/mL | 0.391 µg/mL | 1.56 µg/mL | 1.56 µg/mL | 0.013 µg/mL | 0.098 µg/mL | 0.098 µg/mL | 0.098 µg/mL | 0.195 µg/mL | 0.781 µg/mL | 0.391 µg/mL | 0.195 µg/mL | 
8 | Cc1c(F)c(N2CCNC(C)C2)cc2c1c(=O)c(C(=O)C[N+](=O)[O-])cn2C1CC1 (stereo not drawn) [Example 51, 1-cyclopropyl-5-methyl-6-fluoro-7-(3-methylpiperazin-1-yl)-3-(2-nitroacetyl)-1,4-dihydro-4-oxoquinoline hydrochloride] | 0.025 µg/mL | 0.025 µg/mL | 0.025 µg/mL | 0.049 µg/mL | 0.781 µg/mL | 0.195 µg/mL | 0.049 µg/mL | 0.013 µg/mL | 0.391 µg/mL | 0.195 µg/mL | 0.781 µg/mL | 0.781 µg/mL | 0.025 µg/mL | 0.098 µg/mL | 0.098 µg/mL | 0.195 µg/mL | 0.391 µg/mL | 0.781 µg/mL | 0.391 µg/mL | 0.195 µg/mL | 
9 | CCOC(=O)C(C(N)=O)C(=O)c1cn(C2CC2)c2c(Cl)c(N3CCC(N)C3)c(F)cc2c1=O (stereo not drawn) [Example 52, 1-cyclopropyl-6-fluoro-8-chloro-7-(3-aminopyrrolidin-1-yl)-3-(2-amido-2-ethoxycarbonylacetyl)-1,4-dihydro-4-oxoquinoline hydrochloride] | < 0.002 µg/mL | 0.004 µg/mL | 0.007 µg/mL |  | 0.049 µg/mL | 0.025 µg/mL | < 0.002 µg/mL | < 0.002 µg/mL | 0.391 µg/mL | 0.098 µg/mL | 0.391 µg/mL | 0.781 µg/mL | 0.013 µg/mL | 0.025 µg/mL | 0.025 µg/mL | 0.025 µg/mL | 0.391 µg/mL | 0.195 µg/mL | 0.391 µg/mL | 0.013 µg/mL | MIC (Escherichia coli 1507E; 18 hours, read-out: MIC): 0.004 µg/mL
